Measured values published in article PMC12076188 (Cancer Research Communications, 2025).

Columns and labels:
[1] = PK/PD study, glecirasib concentration in plasma and tumor; assay type: in vivo, NOD SCID mice
Experimental: Female NOD SCID mice (NOD/ShiLtJ-Prkdc^scid) were obtained from SPF (Beijing) Biotechnology Co., Ltd. Each female NOD SCID mouse was inoculated subcutaneously in the right flank region with 5 × 10^6 NCI-H358 cells in PBS containing 50% BD Matrigel (Corning) for tumor development. […] All treatments were administered by oral gavage. Plasma and tumor samples were collected for pharmacokinetics (PK) and pharmacodynamics (PD) analyses at the desired time points. p-ERK1/2 (Thr202/Tyr204) levels in tumors were determined using the advanced p-ERK1/2 (Thr202/Tyr204) cellular kit (Cisbio/Revvity). […] PK/PD correlation was established by comparing p-ERK levels with drug concentration at each time point.

[2] = biological target: Potassium channel KCNQ1 (Homo sapiens, UniProt P51787); assay: in vitro
[3] = biological target: Opioid μ (Homo sapiens, UniProt P35372); assay: 41-target safety off-target activity panel
[4] = system: p-ERK1/2 (Thr202/Tyr204) in MIA PaCa-2 cells (KRAS p.G12C); assay: cells; assay type: cell-based; details: Homo sapiens, MIA PaCa-2, 2 h, read-out: p-ERK IC50 (nM)
Experimental: (§2) For phospho-ERK (p-ERK) assays, cells were seeded in 96-well plates with appropriate density (refer to Supplementary Table S3) and incubated overnight, followed by treatment with a series of concentrations of compounds in the assay medium (containing 0.1% FBS) for 2 hours. […] Then, p-AKT1/2/3 (Ser473) was detected using the p-AKT1/2/3 (Ser473) cellular kit (Cisbio/Revvity) according to the manufacturer’s instructions. […] The IC50 values were calculated using GraphPad Prism (RRID: SCR_002798) by fitting a four-parameter dose–response curve.

[5] = biological target: T1, Androgen AR (androgen receptor) (Homo sapiens, UniProt P10275); assay: 41-target safety off-target activity panel
T1 sequence (P10275 1-920): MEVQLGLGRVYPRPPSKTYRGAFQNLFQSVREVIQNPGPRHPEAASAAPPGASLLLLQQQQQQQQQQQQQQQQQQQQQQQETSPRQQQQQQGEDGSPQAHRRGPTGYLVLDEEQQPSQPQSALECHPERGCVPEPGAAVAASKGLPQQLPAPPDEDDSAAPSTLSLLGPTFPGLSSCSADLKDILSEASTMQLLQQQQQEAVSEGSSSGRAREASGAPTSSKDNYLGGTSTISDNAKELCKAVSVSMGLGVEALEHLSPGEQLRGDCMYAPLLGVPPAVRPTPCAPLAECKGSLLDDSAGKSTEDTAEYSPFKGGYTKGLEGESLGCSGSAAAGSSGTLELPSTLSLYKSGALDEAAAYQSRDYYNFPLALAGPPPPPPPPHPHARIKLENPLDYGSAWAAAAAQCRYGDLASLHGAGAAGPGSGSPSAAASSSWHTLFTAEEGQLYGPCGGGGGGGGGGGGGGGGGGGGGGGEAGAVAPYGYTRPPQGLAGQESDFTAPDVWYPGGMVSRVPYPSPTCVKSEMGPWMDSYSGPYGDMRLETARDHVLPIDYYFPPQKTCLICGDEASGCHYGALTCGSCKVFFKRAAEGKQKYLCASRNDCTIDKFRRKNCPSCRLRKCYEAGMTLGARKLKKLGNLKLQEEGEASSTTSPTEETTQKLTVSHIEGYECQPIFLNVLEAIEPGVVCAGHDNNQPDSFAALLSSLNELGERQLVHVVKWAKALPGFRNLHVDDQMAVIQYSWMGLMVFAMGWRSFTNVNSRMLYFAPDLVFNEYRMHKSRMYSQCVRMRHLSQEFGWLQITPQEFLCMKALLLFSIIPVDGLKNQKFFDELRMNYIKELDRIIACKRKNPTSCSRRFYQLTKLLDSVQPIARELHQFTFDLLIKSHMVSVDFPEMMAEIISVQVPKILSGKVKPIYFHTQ

[6] = biological target: Glucocorticoid GR (Homo sapiens, UniProt P04150); assay: 41-target safety off-target activity panel
[7] = biological target: Opioid δ (Homo sapiens, UniProt P41143); assay: 41-target safety off-target activity panel
[8] = system: bone marrow; assay: Rat bone marrow micronucleus assay; assay type: in vivo, Sprague Dawley Rat; details: 200, 600 and 2000 mg/kg oral gavage once daily for 3 days; GLP
Experimental: No damage on chromosomal integrity or abnormal chromosome
Rat bone marrow Sprague Dawley Rat 5/gender/group segregation in the bone marrow was noted after SD rats were administered Yes
3 consecutive days. The result of this micronucleus assay was negative. […]

[9] = system: p-ERK1/2 (Thr202/Tyr204) in SW1573 cells (KRAS p.G12C); assay: cells; assay type: cell-based; details: Homo sapiens, SW1573, 2 h, read-out: p-ERK IC50 (nM)
Experimental: as §2

[10] = biological target: 5-Hydroxytryptamine 5HT2C (Homo sapiens, UniProt P28335); assay: 41-target safety off-target activity panel
[11] = biological target: T2, GppNp-bound HRAS WT (Homo sapiens, UniProt P01112); assay: GppNp-loaded RAS and cRAF interaction assay (HTRF); assay type: biochemical
T2 construct: His-tagged HRAS WT (aa 1–166); made in house; host or cells: Escherichia coli

[12] = biological target: 5-Hydroxytryptamine 5HT2A (Homo sapiens, UniProt P28223); assay: 41-target safety off-target activity panel
[13] = biological target: Calcium channel Cav1.2 (Homo sapiens, UniProt Q13936); assay: in vitro
[14] = system: Ba/F3 cells carrying HRAS p.G12C; assay: Ba/F3-engineered cell line viability; assay type: cell-based; details: Mus musculus, BaF3; Ba/F3 cell line carrying HRAS p.G12C; read-out: cell viability inhibitory IC50
Experimental: (§1) The inhibitory activity of compounds on Ba/F3-engineered cell line viability was tested by Kyinno Biotechnology. Other cell viability assays on human cancer cell lines were conducted in-house. Cells were seeded in 96-well plates and incubated overnight, followed by treatment with various concentrations of compounds or solvent control for 6 days. Cell viability was detected using either the CellTiter-Glo (CTG) luminescent cell viability assay or the CTG 3D cell viability assay (Promega) for 2D and 3D CTG assays, respectively. […] The cell density is indicated in Supplementary Table S3.

[15] = system: Ba/F3 cells carrying NRAS p.G12C; assay: Ba/F3-engineered cell line viability; assay type: cell-based; details: Mus musculus, BaF3; Ba/F3 cell line carrying NRAS p.G12C; read-out: cell viability inhibitory IC50
Experimental: as §1

[16] = biological target: Adrenergic α1A (Homo sapiens, UniProt P35348); assay: 41-target safety off-target activity panel
[17] = after 8 hours, 30 mg/kg single oral dose, below the quantification limit

Chain of Opioid μ (P35372 whole entry): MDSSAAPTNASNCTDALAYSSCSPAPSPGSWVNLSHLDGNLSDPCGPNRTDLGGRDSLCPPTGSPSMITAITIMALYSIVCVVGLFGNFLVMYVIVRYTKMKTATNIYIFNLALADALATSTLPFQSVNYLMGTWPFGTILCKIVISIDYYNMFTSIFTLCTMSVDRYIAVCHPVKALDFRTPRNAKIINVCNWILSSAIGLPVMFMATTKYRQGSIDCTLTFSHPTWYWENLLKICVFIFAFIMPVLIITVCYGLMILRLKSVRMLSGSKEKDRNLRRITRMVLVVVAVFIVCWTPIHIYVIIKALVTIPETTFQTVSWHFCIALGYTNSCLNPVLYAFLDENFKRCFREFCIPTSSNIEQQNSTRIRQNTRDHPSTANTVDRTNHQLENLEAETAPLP
Chain of Adrenergic α1A (P35348 whole entry): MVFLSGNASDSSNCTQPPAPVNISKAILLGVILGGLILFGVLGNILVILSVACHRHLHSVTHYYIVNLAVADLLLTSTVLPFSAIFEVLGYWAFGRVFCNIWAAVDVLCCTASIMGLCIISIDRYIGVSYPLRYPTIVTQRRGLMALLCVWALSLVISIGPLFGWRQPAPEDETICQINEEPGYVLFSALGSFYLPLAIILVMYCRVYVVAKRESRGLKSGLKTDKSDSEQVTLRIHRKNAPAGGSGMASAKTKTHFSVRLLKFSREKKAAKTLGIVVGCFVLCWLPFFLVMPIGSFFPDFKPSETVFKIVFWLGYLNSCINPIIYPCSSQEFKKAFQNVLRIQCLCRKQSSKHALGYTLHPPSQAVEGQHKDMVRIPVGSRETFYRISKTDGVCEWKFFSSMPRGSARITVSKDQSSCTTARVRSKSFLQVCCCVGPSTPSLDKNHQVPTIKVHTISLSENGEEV
Chain of 5-Hydroxytryptamine 5HT2A (P28223 whole entry): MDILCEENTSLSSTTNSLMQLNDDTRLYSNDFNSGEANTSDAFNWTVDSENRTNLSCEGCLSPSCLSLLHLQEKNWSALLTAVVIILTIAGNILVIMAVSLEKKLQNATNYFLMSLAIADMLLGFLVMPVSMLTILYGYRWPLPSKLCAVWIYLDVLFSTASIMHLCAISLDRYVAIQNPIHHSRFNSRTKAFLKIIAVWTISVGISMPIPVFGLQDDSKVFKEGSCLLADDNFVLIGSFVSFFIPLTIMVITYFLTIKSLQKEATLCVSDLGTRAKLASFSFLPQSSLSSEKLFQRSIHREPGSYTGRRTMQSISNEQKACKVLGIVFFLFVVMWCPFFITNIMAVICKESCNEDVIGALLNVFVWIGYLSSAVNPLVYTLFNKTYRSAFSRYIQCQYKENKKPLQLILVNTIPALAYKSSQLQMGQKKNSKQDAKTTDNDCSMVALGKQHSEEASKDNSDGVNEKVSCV
Chain of 5-Hydroxytryptamine 5HT2C (P28335 33-458): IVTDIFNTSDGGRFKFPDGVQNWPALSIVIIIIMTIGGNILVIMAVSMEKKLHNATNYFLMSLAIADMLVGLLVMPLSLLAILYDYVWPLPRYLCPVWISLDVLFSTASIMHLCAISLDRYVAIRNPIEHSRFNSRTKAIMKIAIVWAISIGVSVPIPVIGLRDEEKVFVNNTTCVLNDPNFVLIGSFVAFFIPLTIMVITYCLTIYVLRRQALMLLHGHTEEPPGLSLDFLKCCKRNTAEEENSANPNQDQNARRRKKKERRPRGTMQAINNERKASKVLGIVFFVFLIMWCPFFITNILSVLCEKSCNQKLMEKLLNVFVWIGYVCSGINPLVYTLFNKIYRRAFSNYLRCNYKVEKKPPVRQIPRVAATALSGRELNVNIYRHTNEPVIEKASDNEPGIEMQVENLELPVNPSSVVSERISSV
Chain of Glucocorticoid GR (P04150 whole entry): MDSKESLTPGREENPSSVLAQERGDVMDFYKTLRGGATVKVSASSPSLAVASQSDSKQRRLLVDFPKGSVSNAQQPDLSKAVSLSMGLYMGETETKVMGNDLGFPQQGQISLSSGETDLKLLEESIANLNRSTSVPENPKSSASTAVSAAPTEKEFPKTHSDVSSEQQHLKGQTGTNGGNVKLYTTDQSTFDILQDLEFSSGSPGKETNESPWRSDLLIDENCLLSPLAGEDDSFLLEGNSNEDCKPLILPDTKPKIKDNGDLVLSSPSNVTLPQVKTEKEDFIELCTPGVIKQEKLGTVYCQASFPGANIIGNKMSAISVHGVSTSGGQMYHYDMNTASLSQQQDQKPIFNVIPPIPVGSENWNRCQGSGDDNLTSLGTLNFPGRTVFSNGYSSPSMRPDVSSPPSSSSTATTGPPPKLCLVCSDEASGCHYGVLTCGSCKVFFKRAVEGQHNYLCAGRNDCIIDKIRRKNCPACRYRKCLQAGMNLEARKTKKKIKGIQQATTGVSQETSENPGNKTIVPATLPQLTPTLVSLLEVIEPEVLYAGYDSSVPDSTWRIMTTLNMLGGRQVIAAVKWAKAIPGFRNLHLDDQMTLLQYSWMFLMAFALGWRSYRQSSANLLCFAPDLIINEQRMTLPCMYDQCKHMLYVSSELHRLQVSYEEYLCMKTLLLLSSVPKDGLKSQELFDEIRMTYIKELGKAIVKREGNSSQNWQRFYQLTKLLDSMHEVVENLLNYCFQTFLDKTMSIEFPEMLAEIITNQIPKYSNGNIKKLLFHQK
Chain of Opioid δ (P41143 whole entry): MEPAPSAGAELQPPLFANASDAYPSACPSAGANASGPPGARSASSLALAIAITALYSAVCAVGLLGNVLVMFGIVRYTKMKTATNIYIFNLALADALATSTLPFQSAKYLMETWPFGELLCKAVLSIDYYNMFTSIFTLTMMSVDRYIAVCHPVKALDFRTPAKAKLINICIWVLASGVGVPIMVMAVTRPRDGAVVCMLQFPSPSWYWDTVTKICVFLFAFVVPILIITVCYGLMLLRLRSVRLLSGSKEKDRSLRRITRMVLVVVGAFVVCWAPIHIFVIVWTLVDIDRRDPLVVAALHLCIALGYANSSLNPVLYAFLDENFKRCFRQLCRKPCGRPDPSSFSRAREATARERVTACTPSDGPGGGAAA
Chain of Potassium channel KCNQ1 (P51787 whole entry): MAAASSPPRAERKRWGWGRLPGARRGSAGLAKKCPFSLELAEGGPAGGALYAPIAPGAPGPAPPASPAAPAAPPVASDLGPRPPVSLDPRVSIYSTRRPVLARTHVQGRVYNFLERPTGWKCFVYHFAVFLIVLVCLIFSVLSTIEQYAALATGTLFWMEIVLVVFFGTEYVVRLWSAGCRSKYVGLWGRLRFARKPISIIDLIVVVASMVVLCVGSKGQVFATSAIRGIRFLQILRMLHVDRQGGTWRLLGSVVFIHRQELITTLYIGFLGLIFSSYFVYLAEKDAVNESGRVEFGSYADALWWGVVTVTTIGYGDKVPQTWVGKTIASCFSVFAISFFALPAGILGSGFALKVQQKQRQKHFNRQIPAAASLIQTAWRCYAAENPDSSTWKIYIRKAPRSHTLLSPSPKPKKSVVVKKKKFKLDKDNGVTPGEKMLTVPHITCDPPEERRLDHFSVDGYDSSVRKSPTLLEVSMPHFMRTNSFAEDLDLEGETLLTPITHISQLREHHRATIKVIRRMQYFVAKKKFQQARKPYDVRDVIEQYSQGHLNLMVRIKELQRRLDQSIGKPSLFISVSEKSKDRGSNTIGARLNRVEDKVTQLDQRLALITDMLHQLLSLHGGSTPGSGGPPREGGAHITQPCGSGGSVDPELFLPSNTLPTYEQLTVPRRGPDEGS
T2 sequence (P01112 1-166): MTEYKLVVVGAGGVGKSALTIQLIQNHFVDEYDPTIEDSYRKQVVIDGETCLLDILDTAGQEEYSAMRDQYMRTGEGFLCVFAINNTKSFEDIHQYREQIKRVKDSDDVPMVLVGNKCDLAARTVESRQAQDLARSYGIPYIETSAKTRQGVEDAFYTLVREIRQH

Q: Which “glecirasib concentration in plasma” value [1, 17] does the source give for C=CC(=O)N1CCN(c2c(C#N)c(=O)n(-c3c(C)ccnc3C(C)C)c3nc(-c4c(N)c(F)c(F)c(F)c4F)c(Cl)cc23)CC1 [Glecirasib] here?
A: Its value is < 1 ng/mL.

Q: And the “glecirasib concentration in tumor” value [1, 17]?
A: The value was < 5.5 ng/g.

Q: What about the “glecirasib concentration in plasma” value ([1]; after 8 hours, 100 mg/kg single oral dose, below the quantification limit) of the same compound?
A: Its value is < 1 ng/mL.

Q: What about the “concentration in plasma and tumor” value ([1]; after 24 hours, single oral administration) of the same compound?
A: The value was “below the lower limit of quantification”.

Q: What about the Tmax ([1]; female, NOD SCID (NOD/ShiLtJ-Prkdc^scid), mouse, plasma and tumor, single oral administration, 30 mg/kg and 100 mg/kg, read-out: time of peak concentration in plasma and tumor) of the same compound?
A: Its Tmax is 2 h.

Q: What about the inhibition at 10 µM [2] of the same compound?
A: The inhibition at 10 µM was 8.37%.

Q: And the inhibition at 10 µM [3]?
A: Its inhibition at 10 µM is 36.9%.

Q: And the Mean % activation ([3]; Glecirasib 10 μM)?
A: The Mean % activation was 5.69%.

Q: And the IC50 [4]?
A: Its IC50 is 21 nM.

Q: And the IC50 [5]?
A: Its IC50 is 3600 nM.

Q: What about the inhibition at 10 µM [5] of the same compound?
A: The inhibition at 10 µM was 115%.

Q: And the Mean % activation ([5]; Glecirasib 10 μM)?
A: Its Mean % activation is -33.00%.

Q: What about the inhibition at 10 µM [6] of the same compound?
A: The inhibition at 10 µM was 47%.

Q: And the Mean % activation ([6]; Glecirasib 10 μM)?
A: Its Mean % activation is -2.33%.

Q: And the inhibition at 10 µM [7]?
A: Its inhibition at 10 µM is 33%.

Q: What about the Mean % activation ([7]; Glecirasib 10 μM) of the same compound?
A: The Mean % activation was 8.42%.

Q: What about the micronucleus assay result [8] of the same compound?
A: The micronucleus assay result was “negative”.

Q: What about the IC50 [9] of the same compound?
A: Its IC50 is 14 nM.

Q: And the inhibition at 10 µM [10]?
A: Its inhibition at 10 µM is 43.2%.

Q: And the Mean % activation ([10]; Glecirasib 10 μM)?
A: Its Mean % activation is 19.92%.

Q: And the IC50 [11]?
A: Its IC50 is > 10000 nM.

Q: And the inhibition at 10 µM [12]?
A: The inhibition at 10 µM was 13.6%.

Q: What about the Mean % activation ([12]; Glecirasib 10 μM) of the same compound?
A: Its Mean % activation is -0.04%.

Q: And the inhibition at 10 µM [13]?
A: The inhibition at 10 µM was 1.46%.

Q: And the IC50 [14]?
A: The IC50 was 5.32 nM.

Q: And the IC50 [15]?
A: The IC50 was 2.02 nM.

Q: And the inhibition at 10 µM [16]?
A: Its inhibition at 10 µM is 22.9%.

Q: And the Mean % activation ([16]; Glecirasib 10 μM)?
A: Its Mean % activation is 27.61%.
